# Reference: US7109338B2, “1,2-disubstituted 1,4-dihydro-4-oxoquinoline compounds” (priority 1999, dated 2006)
# Tests used:
# [1] = test system: Poliovirus type 1 (Polio 1, Sabin); test: microbe, parasite or virus in culture; type: cell-based
# [2] = test system: echovirus type 11 (Echo 11, Gregory); test: In vitro anti-picornavirus activity (MTT), Echo 11; type: cell-based; conditions: HeLa-S3 cells, MTT method, 37° C.
# [3] = test system: coxsackievirus type A7 (CA7); test: In vitro anti-picornavirus activity (MTT), CA7; type: cell-based; conditions: HeLa-S3 cells, MTT method, 37° C.
# [4] = test system: coxsackievirus type B4 (CB4,JVB); test: In vitro anti-picornavirus activity (MTT), CB4; type: cell-based; conditions: HeLa cells, MTT method, 37° C.
# [5] = test system: human rhinovirus type 1B (HRV 1B, B632); test: Anti-rhinovirus activity (MTT), HRV1B; type: cell-based; conditions: HeLa (Ohio strain) cells, MTT method, 33° C.
# HRV 2 (HGP) = test: Anti-rhinovirus activity (MTT), HRV2; type: cell-based, human rhinovirus; conditions: HeLa (Ohio strain) cells, MTT method, 33° C.
# HRV 89 (41617-Gallo) = test: Anti-rhinovirus activity (MTT), HRV89; type: cell-based, human rhinovirus; conditions: HeLa (Ohio strain) cells, MTT method, 33° C.
# HeLa cells = test: Cytotoxicity (MTT, without virus), HeLa; conditions: HeLa, no virus, incubated for 4 days
# HeLa-S3 cells = test: Cytotoxicity (MTT, without virus), HeLa-S3; conditions: HeLa-S3, no virus, incubated for 4 days
# HeLa (Ohio strain)cells = test: Cytotoxicity (MTT, without virus), HeLa(Ohio); conditions: HeLa(Ohio), no virus, incubated for 4 days
Compound,IC50 Polio 1 [1] [µg/mL],IC50 Echo 11 [2] [µg/mL],IC50 CA7 [3] [µg/mL],IC50 CB4 [4] [µg/mL],IC50 HRV1B [5] [µg/mL],IC50 HRV2 (HRV 2 (HGP)) [µg/mL],IC50 HRV89 (HRV 89 (41617-Gallo)) [µg/mL],Cytotoxicity CC50 HeLa (HeLa cells) [µg/mL],Cytotoxicity CC50 HeLa-S3 (HeLa-S3 cells) [µg/mL],Cytotoxicity CC50 HeLa(Ohio) (HeLa (Ohio strain)cells) [µg/mL]
Cc1c(-c2ccccc2)n(C)c2ccc(NCC(C)C)cc2c1=O [Compound A157],0.59,0.27,3.8,4.9,1.0,0.56,1.3,>5,>5,>5
CCn1c(-c2ccc(Br)s2)cc(=O)c2cc(C(C)C)ccc21 [Compound A317],0.81,0.35,2.6,1.1,0.82,0.43,0.40,>5,>5,>5
Cc1c(OCC(C)C)ccc2c1c(=O)cc(-c1ccccc1)n2C [Compound A186],0.67,0.27,3.0,1.2,1.1,>1.7,0.26,>5,>5,5.0
CCn1c(-c2ccccc2)c(C)c(=O)c2cc(NCC(C)C)ccc21.O [Compound A159],0.51,0.26,2.7,3.0,0.78,0.48,0.73,>5,>5,>5
Cc1cc2c(c(C)c1OCC(C)C)c(=O)c(C)c(-c1ccccc1)n2C [Compound A286],1.3,0.57,>5,1.4,0.87,0.23,0.61,>5,>5,>5
CCn1c(-c2ccccc2)c(C)c(=O)c2c(Cl)c(OCC(C)C)ccc21 [Compound A179],0.29,0.20,2.4,1.2,0.86,0.87,0.37,>4,>4,>4
CCn1c(-c2ccccc2)c(C)c(=O)c2cc(NCC(C)C)ccc21.Cl [Compound A160],0.55,0.27,2.7,2.9,0.73,0.45,0.78,>5,>5,>5
COc1ccc(-c2c(C)c(=O)c3c(C)c(OCC(C)C)ccc3n2C)cc1C [Compound A190],0.58,0.23,3.2,2.4,2.0,0.57,0.28,>4,>4,>4
CCn1c(-c2nccs2)cc(=O)c2cc(C(C)C)ccc21 [Compound A319],2.0,0.81,8.9,9.4,1.5,0.80,2.0,35,>50,32
CCn1c(-c2ccccc2)c(C)c(=O)c2cc(OCC(C)C)ccc21 [Compound A130],0.86,0.32,0.17,>4,0.90,0.65,0.72,>4,>4,>4
CCn1c(-c2ccc(OC)c(C)c2)cc(=O)c2cc(C(C)C)ccc21 [Compound A98],0.66,0.26,2.9,1.2,0.78,0.42,0.36,>4,>4,>4
CCn1c(-c2cccs2)cc(=O)c2cc(C(C)C)ccc21 [Compound A309],0.76,0.28,3.3,1.5,0.48,0.25,0.58,12,18,14
CC(C)c1ccc2c(c1)c(=O)cc(-c1ccn(C)c1)n2C [Compound A306],0.83,0.49,2.9,2.1,0.89,0.73,0.88,14,26,25
COc1c(OCC(C)C)ccc2c1c(=O)c(C)c(-c1ccccc1)n2C [Compound A196],1.1,0.44,9.7,1.9,5.9,1.8,0.86,>10,>10,>10
CCCOc1ccc2c(c1)c(=O)c(C)c(-c1ccccc1)n2CC [Compound A32],0.93,0.40,1.9,>3.3,1.0,0.55,0.77,9.7,>10,>10
CCn1c(-c2ccc(C)s2)cc(=O)c2cc(C(C)C)ccc21 [Compound A315],0.54,0.30,1.2,0.63,0.52,0.28,0.26,7.1,>10,>10
Cc1c(-c2ccccc2)n(C)c2cc(C(C)C)c(OC(C)C)cc2c1=O [Compound A258],0.62,0.23,4.9,>1.6,0.62,0.45,0.66,4.5,>5,4.9
CCn1c(-c2ccccc2)c(C)c(=O)c2cc(N3CCOCC3)ccc21 [Compound A169],4.3,1.1,>50,18,8.2,1.0,5.4,>50,>50,>50
CC(C)c1ccc2c(c1)c(=O)cc(-c1cccs1)n2C [Compound A308],0.87,0.31,3.9,1.6,0.81,0.36,0.94,11,16,11
CCn1c(-c2ccccc2)c(C)c(=O)c2cc(-c3ccccc3)ccc21 [Compound A171],0.52,0.22,1.9,2.0,0.43,0.76,0.39,>2.5,>2.5,>2.5
